These results are taken from PMC12153294 (mBio, 2025).

“And” between values parts separate entries of the source, which are not always exact repeats. Equal entries are not always repeated. Where two headings read alike, the source gives them in different places.

Data set [1] addresses T1, SARS-CoV-2 Mac1 (Severe acute respiratory syndrome coronavirus 2, UniProt P0DTD1). The experiment in a line: biochemical. The following applies: inhibition of Mac1 binding to ADP-ribosylated peptide; average of 2 independent experiments; read-out: Mac1 IC50 (AlphaScreen assay).
A further data set relates to DBT cells. The experiment in a line: Cell viability, MTT assay, DBT cells. The conditions noted are these: concentrations tested. Format: cell-based. The procedure: (§1) Delayed brain tumor (DBT), L929, and Calu3 Cellular metabolic activity was assessed using a CyQUANT MTT cell proliferation assay (Thermo Fisher Scientific) by following the manufacturer’s instructions.
(Tetrazolium assays rely on reduction of a dye to a coloured formazan, in cell work by metabolically active cells.)

Data set [2] concerns the target T1, SARS-CoV-2 Mac1. The data set is described as follows: Differential scanning fluorimetry (DSF) thermal shift assay. It is filed as binding. The following applies: thermal stability of SARS-CoV-2 Mac1, increasing compound concentrations. On the procedure: Thermal shift assay with DSF involved the use of LightCycler 480 Instrument (Roche Diagnostics). In total, a 15 µL mixture containing 8 × SYPRO Orange (Invitrogen) and 10 µM macrodomain protein in buffer containing 20 mM HEPES-NaOH, pH 7.5, and various concentrations of ADP-ribose or hit compounds was mixed on ice in a 384-well PCR plate (Roche). Fluorescent signals were measured from 25 to 95°C in 0.2°C/30/S steps (excitation, 470–505 nm; detection, 540–700 nm). The main measurements were carried out in triplicate. Data evaluation and Tm determination involved the use of the Roche LightCycler 480 Protein Melting Analysis software, and data fitting calculations involved the use of single-site binding curve analysis on GraphPad Prism. The thermal shift (ΔTm) was calculated by subtracting the Tm values of the DMSO from the Tm values of the compounds.
For orientation: Differential scanning fluorimetry follows unfolding on heating by fluorescence.

Data set [3] is described as follows: LogD determination, shake-flask method. It is filed as physicochemical. The following applies: octanol/PBS, pH 7.4. The procedure:
In total, 0.11 mg of each compound was weighed out into 2 mL centrifuge tubes; 1 mL of octanol-saturated PBS or 0.1M HCl was added to each centrifuge tube and vortexed to dissolve. Then, 0.5–1.0 mL of the PBS-saturated octanol was added to the 0.5–1.0 mL octanol-saturated PBS supernatant and vortexed. Next, 100 μL of the octanol-saturated PBS phase from each centrifuge tube was added to separate UPLC vials; 100 μL of 50:50 MP H2O:ACN was added to each vial and vortexed. The remaining octanol-saturated PBS layer was removed from the vial using a micropipette and stored in a separate vial, and 100 μL of the PBS-saturated octanol layer from each centrifuge tube was added to separate UPLC vials. In total, 100 μL of 50:50 MP H2O:ACN was added to each vial and vortexed. These procedures were repeated in triplicate and then analyzed by UPLC/UV-VIS.

For another data set, the system named is JHMV-nLuc. Format: cell-based, murine hepatitis virus (MHV).
Another data set concerns Mac1. The following applies: cited from earlier work.
The test system of a further data set is L929 cells. The experiment in a line: Cell viability, MTT assay, L929 cells. Format: cell-based. The conditions noted are these: concentrations tested. The procedure: as §1
The nature of data set [4]: AlphaScreen counter screen with Bn-His6 control peptide. The following applies: same figure table as Mac1 IC50 (μM), NI not defined; for IC50: Bn-His peptide control, unit inferred. On the procedure:
The AlphaScreen reactions were carried out in 384-well plates (Alphaplate, PerkinElmer, Waltham, MA) in a total volume of 40 µL in buffer containing 25 mM HEPES (pH 7.4), 100 mM NaCl, 0.5 mM TCEP, 0.1% BSA, and 0.05% CHAPS. All reagents were prepared as 4× stocks, and 10 µL of each reagent was added to a final volume of 40 µL. All compounds were transferred acoustically using ECHO 555 (Beckman Inc) and preincubated after mixing with purified His-tagged macrodomain protein (250 nM) for 30 min at RT, followed by the addition of a 10 amino acid biotinylated and ADP-ribosylated peptide [ARTK(Bio) QTARK (Aoa-RADP)S] (Cambridge peptides) (625 nM). After 1 h incubation at RT, streptavidin-coated donor beads (7.5 µg/mL) and nickel chelate acceptor beads (7.5 µg/mL) (PerkinElmer AlphaScreen Histidine Detection Kit) were added under low light conditions, and plates were shaken at 400 rpm for 60 min at RT protected from light. Plates were kept covered and protected from light at all steps and read on the BioTek plate reader using an AlphaScreen 680 excitation/570 emission filter set. For counter screening of the compounds, 25 nM biotinylated and hexahistidine-tagged linker peptide (Bn-His6) (PerkinElmer) was added to the compounds, followed by the addition of beads as described above. For data analysis, the percent inhibition was normalized to positive (DMSO+ labeled peptide) and negative (DMSO + macrodomain + peptide, no ADPr) controls. The IC50 values were calculated via four-parametric non-linear regression analysis, constraining bottom (=0), top (=100), & Hillslope (=1) for all curves.

The conditions of data set [5]: read-out: Reported EC50; cited from earlier work.
Data set [6] relates to JHMV. It is filed as cell-based, murine hepatitis virus (MHV). The following applies: 150 μM.
For data set [7], the system named is JHMV. The data set is described as follows: microbe, parasite or virus in culture. It is filed as cell-based, murine hepatitis virus (MHV). The following applies: for Concentration at which infectious virus production was inhibited: lowest effective concentration tested.
The test system of a further data set is MERS-CoV. It is filed as cell-based.
Data set [8] relates to JHMV-WT. The experiment in a line: microbe, parasite or virus in culture. Format: cell-based, murine hepatitis virus (MHV). The conditions noted are these: for EC50: Murine coronavirus, read-out: EC50, % JHMV-WT inhibition on DBT cells.
For data set [9], the system named is SARS-CoV-2 (Wuhan strain). The data set is described as follows: microbe, parasite or virus in culture. It is filed as cell-based. The following applies: for EC50: Severe acute respiratory syndrome coronavirus 2, Calu-3, presence of IFN-γ, estimated from fold reductions, read-out: EC50 against SARS-CoV-2.
Data set [10] deals with JHMV-WT. The data set is described as follows: microbe, parasite or virus in culture. It is filed as cell-based, murine hepatitis virus (MHV). The conditions noted are these: for Inhibition of MHV, dose-response: 50 to 200 μM, stated for both DBT and L929 cells, better activity on DBT.
The subject of a further data set is Calu-3 cells. The experiment in a line: Cell viability, MTT assay, Calu-3 cells. It is filed as cell-based. On the procedure: as §1
The mark [11] stands for this setting: Calu-3, IFN-γ pre-treated (100 U), 12.5 μM.
Where [12] appears, read: Calu-3, IFN-γ pre-treated (100 U), 25 μM.

Turning to `O=C(O)C(Cc1c[nH]c2ccccc12)Nc1ncnc2[nH]ccc12` (stereo not shown) [Compound 4a], the IC50 (commonly the concentration that inhibits the measured activity by half) at SARS-CoV-2 Mac1 [1] is 6.1 µM; in data set [4], above 100 µM. Also, the “Cell viability (MTT), words” value with DBT cells and in the data set on L929 cells was “do not impact the viability” in each case. In addition, the “DSF assay ΔTm” value at SARS-CoV-2 Mac1 [2] came out at 4.32 °C. For the same compound, in data set [3], the logD (in general, lipophilicity at a set pH, counting ionised and neutral species) was -0.61. In the data set on JHMV-nLuc, the “JHMV-nLuc replication (luciferase activity), words” value (“JHMV-nLuc replication” for short) was “did not affect JHMV replication”. In addition, in the data set with Mac1, the “Mac1 enzyme activity” value was “inhibited Mac1 enzyme activity”.
`N#C[C@@]1(c2ccc3c(N)ncnn23)O[C@H](CO)[C@@H](O)[C@H]1O` [GS-441524, reference compound]: in [5], the EC50 (commonly the concentration that produces a half-maximal response) is around 840 nM. Besides, the “JHMV-nLuc replication” value in the data set with JHMV-nLuc is on record as “inhibited virus replication at all concentrations”.
With `O=C(NCc1ccncc1)[C@H](Cc1c[nH]c2ccccc12)Nc1ncnc2[nH]ccc12` [Compound 6a], the IC50 at SARS-CoV-2 Mac1 [1] is 8.37 µM; in [4] it was above 100 µM. For the same compound, the “DSF assay ΔTm” value at SARS-CoV-2 Mac1 [2] amounted to 1.29 °C.
The like results for `NC(=O)[C@H](Cc1c[nH]c2ccccc12)Nc1ncnc2[nH]ccc12` [Compound 6c] were, in that order, 4.04 µM, above 100 µM and 3.06 °C.
In the case of `COC(=O)[C@H](Cc1c[nH]c2ccccc12)Nc1ncnc2[nH]ccc12` [Compound 5a], the “Fold change in PFU/mL, 5a versus DMSO” value with JHMV [6] (passage 1 (P1)) is reported as 3.17 X; in the data set on JHMV [6] (passage 2 (P2)), -2.0 X; in the data set on JHMV [6] (passage 3 (P3)) it was -1.1 X. The IC50 at SARS-CoV-2 Mac1 [1] is 14.1 µM; in data set [4], above 100 µM. The “Cell viability (MTT), words” value in the data set on DBT cells and in the data set with L929 cells was “do not impact the viability” in each case. In addition, the “Concentration at which infectious virus production was inhibited” value with JHMV [7] is 200 µM. Besides, the “DSF assay ΔTm” value on SARS-CoV-2 Mac1 [2] was 0.97 °C. This compound registered a pH-dependent lipophilicity (logD) in [3] of 1.5. In addition, in the data set with JHMV-nLuc, the “JHMV-nLuc replication” value was “inhibited JHMV replication”.
Take `O=C(NCc1ccccn1)[C@@H](Cc1c[nH]c2ccccc12)Nc1ncnc2[nH]ccc12` [Compound 6e]: the “MERS-CoV replication” value in the data set with MERS-CoV was “did not inhibit MERS-CoV replication”. Besides, the IC50 on SARS-CoV-2 Mac1 [1] was found to be 4.85 µM; in [4] it was 39.6 µM. Moreover, the “Cell viability (MTT), words” value with DBT cells, with L929 cells and with Calu-3 cells was “do not impact the viability” throughout. Moreover, the “DSF assay ΔTm” value at SARS-CoV-2 Mac1 [2] was 1.17 °C. The “JHMV-nLuc replication” value in the data set with JHMV-nLuc is reported as “inhibited light production from MHV replication in a dose-dependent manner”. The EC50 is 53.5 µM with JHMV-WT [8] and at most 12.5 µM in data set [9]. The results for the “Reduction of viral titers” value in data set [9] (setting [11]) and in data set [9] (setting [12]) were 2.7 fold and 3.8 fold, respectively. Moreover, in data set [9] (Calu-3, absence of IFN-γ, 0 to 25 μM), the “Infectious virus production” value is given as “did not reduce infectious virus production”. For the same compound, the “Inhibition of MHV, dose-response” value in the data set with JHMV-WT [10] is recorded as “inhibited MHV in a dose-dependent manner”.
`O=C(NCc1ccnc(Cl)c1)[C@H](Cc1c[nH]c2ccccc12)Nc1ncnc2[nH]ccc12` [Compound 6b]: the IC50 on SARS-CoV-2 Mac1 [1] was 7.57 µM; in data set [4], above 100 µM. Besides, at SARS-CoV-2 Mac1 [2], the “DSF assay ΔTm” value was 1.57 °C.
In the case of `CC(C)OC(=O)[C@H](Cc1c[nH]c2ccccc12)Nc1ncnc2[nH]ccc12` [Compound 5c], the “MERS-CoV replication” value with MERS-CoV is recorded as “did not inhibit MERS-CoV replication”. The IC50 at SARS-CoV-2 Mac1 [1] was 3.66 µM; in data set [4], 25.5 µM. Besides, the “Cell viability (MTT), words” value in the data set with DBT cells, in the data set on L929 cells and with Calu-3 cells was “do not impact the viability” each time. In addition, the EC50 with JHMV [7] (Murine coronavirus, 0 to 50 μM on DBT, and 17 Cl-1 cells, read-out: EC50 for inhibition of virus production) was 10 to 20 µM; in the data set on JHMV-WT [8] it was 18.3 µM; in data set [9], at most 12.5 µM; with JHMV-WT [10] (Murine coronavirus, L929, read-out: EC50, % JHMV-WT inhibition on L929 cells), 20 µM. For the same compound, the “Concentration at which infectious virus production was inhibited” value in the data set with JHMV [7] amounted to 25 µM. Moreover, the “DSF assay ΔTm” value on SARS-CoV-2 Mac1 [2] stood at 0.76 °C. In [3], the logD turned out to be 3.33. Further, the “JHMV-nLuc replication” value in the data set with JHMV-nLuc is “inhibited JHMV replication”. Also, the “Decrease in replication (infectious virus)” value with JHMV-WT [8] (50 μM, DBT cells) is on record as ~ 1.5 logs; with JHMV-WT [10] (50 μM, L929 cells), around 3 logs. In addition, the “Reduction of viral titers” value was 3 fold in data set [9] (setting [11]); 7.5 fold in data set [9] (setting [12]); ~ 2 fold in data set [9] (Calu-3, absence of IFN-γ, 25 μM).
With `O=C(O)C(Cc1c[nH]c2ccccc12)Nc1ncnc2[nH]ccc12` (stereo not shown) [Compound 4b], the IC50 is 1.66 µM and < 2 µM at SARS-CoV-2 Mac1 [1]; above 100 µM in data set [4]. In addition, on SARS-CoV-2 Mac1 [2], the “DSF assay ΔTm” value was 4.46 °C. The “JHMV-nLuc replication” value in the data set with JHMV-nLuc was “did not affect JHMV replication”. In addition, the “Bn-His IC50 (AlphaScreen counter screen)” value in data set [4] (unit not given) is listed as “almost no inhibition”.
Regarding `O=C(NCc1ccccn1)[C@H](Cc1c[nH]c2ccccc12)Nc1ncnc2[nH]ccc12` [Compound 6d], the IC50 at SARS-CoV-2 Mac1 [1] stood at 7.58 µM; in data set [4], 79.2 µM. The “Cell viability (MTT), words” value in the data set with DBT cells and with L929 cells was “do not impact the viability” throughout. Further, on SARS-CoV-2 Mac1 [2], the “DSF assay ΔTm” value turned out to be 1.39 °C. Further, the “JHMV-nLuc replication” value with JHMV-nLuc is “inhibited light production from MHV replication in a dose-dependent manner”. Further, the EC50 in the data set on JHMV-WT [8] came out at 77.1 µM. Also, the “Inhibition of MHV, dose-response” value in the data set with JHMV-WT [10] is listed as “inhibited MHV in a dose-dependent manner”.
